Values quoted from earlier work, collected in patent publication US20260014099A1, “SELF-PRESERVING TOPICAL PHARMACEUTICAL COMPOSITIONS COMPRISING DIETHYLENE GLYCOL MONOETHYL ETHER” (priority 2022, published 2026).

Molecule	Water Solubility
NC(N)=O [urea]	1,190,000 mg/liter
ivermectin	4 mg/L
